≈ marks a conversion by molar mass, not a printed value.
Key:
Saccharomyces cerevisiae = assay: Antifungal activity against Saccharomyces cerevisiae after 18 hr by broth microdilution technique; format: functional
A549 = assay: Cytotoxicity against Homo sapiens (human) A549 cells after 72 hr by MTT assay; format: cell-based; conditions: A549, 72 h
Candida tropicalis = assay: Antifungal activity against Candida tropicalis after 18 hr by broth microdilution technique; format: functional
Vero = assay: Cytotoxicity against Chlorocebus aethiops (African green monkey) Vero cells after 72 hr by MTT assay; format: cell-based; conditions: Chlorocebus sabaeus
Enterococcus faecalis = assay: Antibacterial activity against Enterococcus faecalis after 18 hr by broth microdilution technique; format: functional
Pseudomonas aeruginosa = assay: Antibacterial activity against Pseudomonas aeruginosa after 18 hr by broth microdilution technique; format: functional
Klebsiella pneumoniae = assay: Antibacterial activity against Klebsiella pneumoniae after 18 hr by broth microdilution technique; format: functional
[1] = tested on: Mycobacterium tuberculosis; assay: Antimycobacterial activity against Mycobacterium tuberculosis H37Rv after 21 days by broth dilution method; format: functional; conditions: 504 h
Escherichia coli = assay: Antibacterial activity against Escherichia coli after 18 hr by broth microdilution technique; format: functional
Bacillus subtilis = assay: Antibacterial activity against Bacillus subtilis after 18 hr by broth microdilution technique; format: functional
Aspergillus niger = assay: Antifungal activity against Aspergillus niger after 18 hr by broth microdilution technique; format: functional
Staphylococcus aureus = assay: Antibacterial activity against Staphylococcus aureus after 18 hr by broth microdilution technique; format: functional

c1ccc(-c2nnc(-c3ccc(-n4cccc4)cc3)o2)cc1
MIC (Saccharomyces cerevisiae): 31.2 µg/mL (≈ 109 µM)
IC50 (A549): 256 µM
MIC (Candida tropicalis): 31.2 µg/mL (≈ 109 µM)
IC50 (Vero): 250 µM
MIC (Enterococcus faecalis): 31.2 µg/mL (≈ 109 µM)
MIC (Pseudomonas aeruginosa): 8 µg/mL (≈ 27.8 µM)
MIC (Klebsiella pneumoniae): > 500 µg/mL
MIC [1]: 8 µg/mL (≈ 27.8 µM)
MIC (Escherichia coli): 8 µg/mL (≈ 27.8 µM)
MIC (Bacillus subtilis): 8 µg/mL (≈ 27.8 µM)
MIC (Aspergillus niger): 31.2 µg/mL (≈ 109 µM)
MIC (Staphylococcus aureus): 31.2 µg/mL (≈ 109 µM)

O=C(NNC(=O)c1ccc(-n2cccc2)cc1)c1ccccc1
MIC (Saccharomyces cerevisiae): 31.2 µg/mL (≈ 102 µM)
IC50 (A549): 215 µM
MIC (Candida tropicalis): 31.2 µg/mL (≈ 102 µM)
IC50 (Vero): 200 µM
MIC (Enterococcus faecalis): 62.5 µg/mL (≈ 205 µM)
MIC (Pseudomonas aeruginosa): 62.5 µg/mL (≈ 205 µM)
MIC (Klebsiella pneumoniae): > 500 µg/mL
MIC [1]: 8 µg/mL (≈ 26.2 µM)
MIC (Escherichia coli): 31.2 µg/mL (≈ 102 µM)
MIC (Bacillus subtilis): 16 µg/mL (≈ 52.4 µM)
MIC (Aspergillus niger): 31.2 µg/mL (≈ 102 µM)
MIC (Staphylococcus aureus): 62.5 µg/mL (≈ 205 µM)

Cc1ccc(C)n1-c1ccc(C(=O)N/N=C/c2ccccc2[N+](=O)[O-])cc1
MIC (Saccharomyces cerevisiae): 31.2 µg/mL (≈ 86.2 µM)
MIC (Candida tropicalis): 16 µg/mL (≈ 44.2 µM)
MIC (Enterococcus faecalis): 31.2 µg/mL (≈ 86.2 µM)
MIC (Pseudomonas aeruginosa): > 500 µg/mL
MIC (Klebsiella pneumoniae): > 500 µg/mL
MIC [1]: 62.5 µg/mL (≈ 172 µM)
MIC (Escherichia coli): > 500 µg/mL
MIC (Bacillus subtilis): 31.2 µg/mL (≈ 86.2 µM)
MIC (Aspergillus niger): 16 µg/mL (≈ 44.2 µM)
MIC (Staphylococcus aureus): 62.5 µg/mL (≈ 172 µM)

CC(=O)N1N=C(c2ccc(-n3c(C)ccc3C)cc2)OC1c1ccccc1[N+](=O)[O-] (stereo unspecified)
MIC (Saccharomyces cerevisiae): 31.2 µg/mL (≈ 77.3 µM)
IC50 (A549): 182 µM
MIC (Candida tropicalis): 8 µg/mL (≈ 19.8 µM)
IC50 (Vero): 175 µM
MIC (Enterococcus faecalis): 31.2 µg/mL (≈ 77.3 µM)
MIC (Pseudomonas aeruginosa): 500 µg/mL (≈ 1240 µM)
MIC (Klebsiella pneumoniae): 500 µg/mL (≈ 1240 µM)
MIC [1]: 31.2 µg/mL (≈ 77.3 µM)
MIC (Escherichia coli): 500 µg/mL (≈ 1240 µM)
MIC (Bacillus subtilis): 16 µg/mL (≈ 39.6 µM)
MIC (Aspergillus niger): 8 µg/mL (≈ 19.8 µM)
MIC (Staphylococcus aureus): 31.2 µg/mL (≈ 77.3 µM)

O=C(NNC(=O)c1cccc([N+](=O)[O-])c1)c1ccc(-n2cccc2)cc1
MIC (Saccharomyces cerevisiae): 31.2 µg/mL (≈ 89.2 µM)
IC50 (A549): 203 µM
MIC (Candida tropicalis): 31.2 µg/mL (≈ 89.2 µM)
IC50 (Vero): 195 µM
MIC (Enterococcus faecalis): 62.5 µg/mL (≈ 178 µM)
MIC (Pseudomonas aeruginosa): 16 µg/mL (≈ 45.7 µM)
MIC (Klebsiella pneumoniae): > 500 µg/mL
MIC [1]: 8 µg/mL (≈ 22.8 µM)
MIC (Escherichia coli): 16 µg/mL (≈ 45.7 µM)
MIC (Bacillus subtilis): 16 µg/mL (≈ 45.7 µM)
MIC (Aspergillus niger): 31.2 µg/mL (≈ 89.2 µM)
MIC (Staphylococcus aureus): 62.5 µg/mL (≈ 178 µM)

O=C(NNC(=O)c1ccc(-n2cccc2)cc1)c1ccc(Cl)cc1
MIC (Saccharomyces cerevisiae): 31.2 µg/mL (≈ 92 µM)
IC50 (A549): 185 µM
MIC (Candida tropicalis): 8 µg/mL (≈ 23.5 µM)
IC50 (Vero): 179 µM
MIC (Enterococcus faecalis): 31.2 µg/mL (≈ 92 µM)
MIC (Pseudomonas aeruginosa): 16 µg/mL (≈ 47.1 µM)
MIC (Klebsiella pneumoniae): > 500 µg/mL
MIC [1]: 8 µg/mL (≈ 23.5 µM)
MIC (Escherichia coli): 16 µg/mL (≈ 47.1 µM)
MIC (Bacillus subtilis): 16 µg/mL (≈ 47.1 µM)
MIC (Aspergillus niger): 31.2 µg/mL (≈ 92 µM)
MIC (Staphylococcus aureus): 62.5 µg/mL (≈ 184 µM)

Cc1ccc(C)n1-c1ccc(C(=O)N/N=C/c2c(Cl)cccc2Cl)cc1
MIC (Saccharomyces cerevisiae): 31.2 µg/mL (≈ 80.9 µM)
MIC (Candida tropicalis): 4 µg/mL (≈ 10.4 µM)
MIC (Enterococcus faecalis): 16 µg/mL (≈ 41.4 µM)
MIC (Pseudomonas aeruginosa): 500 µg/mL (≈ 1290 µM)
MIC (Klebsiella pneumoniae): 500 µg/mL (≈ 1290 µM)
MIC [1]: 16 µg/mL (≈ 41.4 µM)
MIC (Escherichia coli): 500 µg/mL (≈ 1290 µM)
MIC (Bacillus subtilis): 16 µg/mL (≈ 41.4 µM)
MIC (Aspergillus niger): 4 µg/mL (≈ 10.4 µM)
MIC (Staphylococcus aureus): 16 µg/mL (≈ 41.4 µM)

C/C(=N/NC(=O)c1ccc(-n2c(C)ccc2C)cc1)c1ccccc1
MIC (Saccharomyces cerevisiae): 62.5 µg/mL (≈ 189 µM)
MIC (Candida tropicalis): 62.5 µg/mL (≈ 189 µM)
MIC (Enterococcus faecalis): 31.2 µg/mL (≈ 94.3 µM)
MIC (Pseudomonas aeruginosa): 500 µg/mL (≈ 1510 µM)
MIC (Klebsiella pneumoniae): 500 µg/mL (≈ 1510 µM)
MIC [1]: 31.2 µg/mL (≈ 94.3 µM)
MIC (Escherichia coli): 500 µg/mL (≈ 1510 µM)
MIC (Bacillus subtilis): 16 µg/mL (≈ 48.3 µM)
MIC (Aspergillus niger): 62.5 µg/mL (≈ 189 µM)
MIC (Staphylococcus aureus): 62.5 µg/mL (≈ 189 µM)

Cc1ccc(C)n1-c1ccc(C(=O)NN=C(c2ccccc2)c2ccccc2)cc1
MIC (Saccharomyces cerevisiae): 62.5 µg/mL (≈ 159 µM)
MIC (Candida tropicalis): 62.5 µg/mL (≈ 159 µM)
MIC (Enterococcus faecalis): 31.2 µg/mL (≈ 79.4 µM)
MIC (Pseudomonas aeruginosa): 500 µg/mL (≈ 1270 µM)
MIC (Klebsiella pneumoniae): 500 µg/mL (≈ 1270 µM)
MIC [1]: 31.2 µg/mL (≈ 79.4 µM)
MIC (Escherichia coli): 500 µg/mL (≈ 1270 µM)
MIC (Bacillus subtilis): 31.2 µg/mL (≈ 79.4 µM)
MIC (Aspergillus niger): 62.5 µg/mL (≈ 159 µM)
MIC (Staphylococcus aureus): 62.5 µg/mL (≈ 159 µM)

Cc1ccc(C)n1-c1ccc(C(=O)N/N=C/c2ccc(Br)cc2)cc1
MIC (Saccharomyces cerevisiae): 31.2 µg/mL (≈ 78.9 µM)
MIC (Candida tropicalis): 8 µg/mL (≈ 20.2 µM)
MIC (Enterococcus faecalis): 31.2 µg/mL (≈ 78.9 µM)
MIC (Pseudomonas aeruginosa): > 500 µg/mL
MIC (Klebsiella pneumoniae): 500 µg/mL (≈ 1260 µM)
MIC [1]: 16 µg/mL (≈ 40.4 µM)
MIC (Escherichia coli): 500 µg/mL (≈ 1260 µM)
MIC (Bacillus subtilis): 16 µg/mL (≈ 40.4 µM)
MIC (Aspergillus niger): 16 µg/mL (≈ 40.4 µM)
MIC (Staphylococcus aureus): 16 µg/mL (≈ 40.4 µM)

Cc1ccc(C)n1-c1ccc(C(=O)N/N=C/c2ccc(N(C)C)cc2)cc1
MIC (Saccharomyces cerevisiae): 31.2 µg/mL (≈ 86.7 µM)
MIC (Candida tropicalis): 31.2 µg/mL (≈ 86.7 µM)
MIC (Enterococcus faecalis): 31.2 µg/mL (≈ 86.7 µM)
MIC (Pseudomonas aeruginosa): 500 µg/mL (≈ 1390 µM)
MIC (Klebsiella pneumoniae): 62.5 µg/mL (≈ 173 µM)
MIC [1]: 31.2 µg/mL (≈ 86.7 µM)
MIC (Escherichia coli): 500 µg/mL (≈ 1390 µM)
MIC (Bacillus subtilis): 31.2 µg/mL (≈ 86.7 µM)
MIC (Aspergillus niger): 31.2 µg/mL (≈ 86.7 µM)
MIC (Staphylococcus aureus): 31.2 µg/mL (≈ 86.7 µM)

CCn1cc(C(=O)O)c(=O)c2cc(F)c(N3CCNCC3)cc21 [NORFLOXACIN]
MIC (Enterococcus faecalis): < 5 µg/mL
MIC (Pseudomonas aeruginosa): > 5 µg/mL
MIC (Klebsiella pneumoniae): ≤ 1 µg/mL
MIC (Escherichia coli): ≤ 1 µg/mL
MIC (Bacillus subtilis): ≤ 1 µg/mL
MIC (Staphylococcus aureus): < 5 µg/mL

CC(C)=NNC(=O)c1ccc(-n2c(C)ccc2C)cc1
MIC (Saccharomyces cerevisiae): 62.5 µg/mL (≈ 232 µM)
MIC (Candida tropicalis): 31.2 µg/mL (≈ 116 µM)
MIC (Enterococcus faecalis): 31.2 µg/mL (≈ 116 µM)
MIC (Pseudomonas aeruginosa): 500 µg/mL (≈ 1860 µM)
MIC (Klebsiella pneumoniae): 500 µg/mL (≈ 1860 µM)
MIC [1]: 31.2 µg/mL (≈ 116 µM)
MIC (Escherichia coli): 500 µg/mL (≈ 1860 µM)
MIC (Bacillus subtilis): 16 µg/mL (≈ 59.4 µM)
MIC (Aspergillus niger): 62.5 µg/mL (≈ 232 µM)
MIC (Staphylococcus aureus): 31.2 µg/mL (≈ 116 µM)

Cc1ccc(C)n1-c1ccc(C(=O)N/N=C/c2ccccc2)cc1
MIC (Saccharomyces cerevisiae): 62.5 µg/mL (≈ 197 µM)
MIC (Candida tropicalis): 31.2 µg/mL (≈ 98.5 µM)
MIC (Enterococcus faecalis): 62.5 µg/mL (≈ 197 µM)
MIC (Pseudomonas aeruginosa): 62.5 µg/mL (≈ 197 µM)
MIC (Klebsiella pneumoniae): 62.5 µg/mL (≈ 197 µM)
MIC [1]: 31.2 µg/mL (≈ 98.5 µM)
MIC (Escherichia coli): 62.5 µg/mL (≈ 197 µM)
MIC (Bacillus subtilis): 31.2 µg/mL (≈ 98.5 µM)
MIC (Aspergillus niger): 31.2 µg/mL (≈ 98.5 µM)
MIC (Staphylococcus aureus): 31.2 µg/mL (≈ 98.5 µM)

Cc1ccc(C)n1-c1ccc(C(=O)N/N=C/c2ccc(O)cc2)cc1
MIC (Saccharomyces cerevisiae): 16 µg/mL (≈ 48 µM)
MIC (Candida tropicalis): 16 µg/mL (≈ 48 µM)
MIC (Enterococcus faecalis): 16 µg/mL (≈ 48 µM)
MIC (Pseudomonas aeruginosa): 500 µg/mL (≈ 1500 µM)
MIC (Klebsiella pneumoniae): 62.5 µg/mL (≈ 187 µM)
MIC [1]: 31.2 µg/mL (≈ 93.7 µM)
MIC (Escherichia coli): 500 µg/mL (≈ 1500 µM)
MIC (Bacillus subtilis): 31.2 µg/mL (≈ 93.7 µM)
MIC (Aspergillus niger): 16 µg/mL (≈ 48 µM)
MIC (Staphylococcus aureus): 16 µg/mL (≈ 48 µM)

— ChEMBL document CHEMBL3046206, “Synthesis of new 4-(2,5-dimethylpyrrol-1-yl)/4-pyrrol-1-yl benzoic acid hydrazide analogs and some derived oxadiazole, triazole and pyrrole ring systems: a novel class of potential antibacterial, antifungal and antitubercular agents” (Med Chem Res, 2013)
